Data as given in patent US10039729B2, “Use of kukoamine A and kukoamine B” (Tianjin Chase Sun Pharmaceutical Co., Ltd., priority 2010, dated 2018).
Where two headings read alike, the source gives them in different places.

Key:
[1] = Affinity biosensor binding with immobilized lipid A; settings: 100 μM operating solution, 5 μl loaded
Description: Immobilization of lipid A and CpG DNA: Using Optically-Based Affinity Biosensors technology, Lipid A, the biologic active centres of LPS, and CpG DNA were respectively, immobilized on the reacting surfaces of cuvettes in an IAsys plus affinity biosensor according to the manufacturer's instructions of IAsys Affinity Sensor. The end of hydrophobic side chain of lipid A was immobilized on cuvette with hydrophobic surface, and the phosphate group (active group of lipid A) at the other end was floating and exposing to the outside, which act as target spot of binding with active constituents for disease treatment in traditional Chinese medicine. The active constituents in solution were binded to lipid A through electrostatic interaction. […]
2.1.1 Methods: 500 g Lycii cortex was added with 5 L distilled water, soaked for 24 h, boiled at 100 for 1 h, filtered by coarse filter paper, and centrifuged at 8000 rpm/min for 30 min, and the supernatant was collected and concentrated to 1 L under reduced pressure. […] Their binding activity with lipid A and CpG DNA were detected according to methods of embodiment 1. […]
3.1 Methods: KA and KB were separately dissolved to make 100 μM operating solution; 5 μl of the solution was loaded; their binding activity with lipid A and CpG DNA were detected according to methods of embodiment 1.

[2] = tested on: RAW264.7 cells; experiment: Cell vitality of RAW264.7 cells (MTT assay); format: cell-based, murine; settings: 24 h; for RAW264.7 cells vitality (OD550): 200 μg/ml, p>0.05
Procedure: (1) Influence on vitality of RAW264.7 cells: According to embodiment 7, for the purpose of experiment a medium group, KB group (25, 50, 100, 200, 400 and 800 μM), a LPS (100 ng/ml)+KB (0, 100, 200 and 400 μM) group and a CpG DNA (10 μg/ml)+KB (0, 100, 200 and 400 μM) group were established; MTT was dissolved with PBS to make 5 mg/ml solution and filtered, which served as stock solution and stored at −20° C. for further detection; RAW264.7 cells were adjusted to 1×10^6/ml in DMEM medium, added into 96-well plates (200 μl per well), and cultured at 37° C. in a 5% CO2 humidified incubator for 4 h; the specified concentration of LPS, CpG DNA and KB were separately loaded according to the grouping; cells were cultured at 37° C. in a 5% CO2 humidified incubator for 24 h, centrifuged at 1000 rpm/min for 5 min; the supernatant was sucked and discarded; each well was added with 180 μl cell culture medium and 20 μl MTT stock solution, then cultured at 37° C. in a 5% CO2 humidified incubator for 4 h, and centrifuged at 1000 rpm/min for 10 min; then the supernatant was sucked and discarded; each well was added with 150 μl DMSO, and shook for 10 min for the dissolution of the crystals; RAW264.7 cells vitality was expressed as absorbance values at 550 nm of each well, which were instantly assayed by ELIASA.

[3] = Affinity biosensor binding with LPS
Description: Immobilization of lipid A and CpG DNA: Using Optically-Based Affinity Biosensors technology, Lipid A, the biologic active centres of LPS, and CpG DNA were respectively, immobilized on the reacting surfaces of cuvettes in an IAsys plus affinity biosensor according to the manufacturer's instructions of IAsys Affinity Sensor. The end of hydrophobic side chain of lipid A was immobilized on cuvette with hydrophobic surface, and the phosphate group (active group of lipid A) at the other end was floating and exposing to the outside, which act as target spot of binding with active constituents for disease treatment in traditional Chinese medicine. The active constituents in solution were binded to lipid A through electrostatic interaction. Biotinylated CpG DNA was immobilized on the surface of a biotin cuvette by linking to avidin, which had been coated on the surface of a biotin cuvette, and then the unlabeled group of CpG DNA was floating and exposing to the outside, which act as target spot of binding with active constituents for disease treatment in traditional Chinese medicine. The active constituents in solution were binded to CpG DNA through the electrostatic interaction and embodiment.
Detection of the aqueous herbal extract: The crude drugs of 114 traditional Chinese herbs were pulverized. 1 g of each powder was added with 10 ml distilled water, boiled at 100° C. for 1.5 h, centrifuged at 4000 rpm for 20 min, filtrated and then collected the supernatant. 5 μl of aqueous herbal extracts of each herb were used to detect their binding with lipid A or CpG DNA. […]
9.1 Methods: KB was separately diluted with PBS to make solutions of 0.25, 0.5, 1, 2 and 4 μM; 5 μl of each solution was separately loaded; binding reaction of KB of various concentration with LPS and CpG DNA was assayed according to the methods in embodiment 1. The dissociation equilibrium constant (KD) of KB with LPS and CpG DNA was calculated using the IAsys FASTfit software. […]

Row | Compound | affinity with lipid A [1] | RAW264.7 cells vitality (OD550) [2] | Kd ([3]; KB 0.25-4 μM, IAsys FASTfit, read-out: dissociation equilibrium constant (KD) with LPS) [nM] | Kd ([3]; with LPS, read-out: dissociation equilibrium constant (KD = kass/kdiss)) [nM] | absorbance values (vitality of RAW264.7 cells) vs medium group ([2]; KB 25-800 μM, or KB 0-400 μM plus LPS 100 ng/ml or CpG DNA 10 μg/ml) | affinity with LPS ([3]; 4 μM solution, 5 μl loaded)
1 | O=C(CCc1ccc(O)c(O)c1)NCCCNCCCCNCCCNC(=O)CCc1ccc(O)c(O)c1 [KA, Kukoamine A] | high affinity | no influence on RAW264.7 cells vitality | – | – | – | –
2 | NCCCN(CCCCNCCCNC(=O)CCc1ccc(O)c(O)c1)C(=O)CCc1ccc(O)c(O)c1 [KB, Kukoamine B] | high affinity | no influence on RAW264.7 cells vitality | 1240 | 1240 | no statistic difference on absorbance values | –
3 | polymyxin B [PMB, reference compound] | – | – | – | – | – | high affinity
